Measured values: US20170204197A1, “Goodpasture Antigen Binding Protein Detection and Inhibition and its Use in Diabetes” (FibroStatin, S.L., priority 2013, published 2017)

How the values were obtained:
A549 cells = test: Glucose uptake by A549 cells under increased extracellular glucose (FIG. 2B); type: cell-based; conditions: DMEM:F-12 (315 mg glucose/dL), increasing concentrations of T12, 14 h
Experimental: (§1) FIG. 2. […] A, A549 cells were cultured in DMEM plus 10% fetal bovine serum and penicillin/streptomycin with the indicated concentrations of glucose during 24 h. Then cells were lysed in 25 mM Tris-HCl pH 7.5, 150 mM NaCl, 1% Triton X-100, 0.1% SDS, 1 mM PMSF, 10 μg/mL leupeptin, 20 mM NaF at 4° C. during 30 min. Lysates were cleared by centrifugation at 16,000×g for 5 min (4° C.) and the protein concentration of supernatants was determined (Bio-Rad). […] Development was performed with Amersham ECL Prime Western Blotting Detection Reagent (GE Healthcare Lifesciences) and image acquisition with an ImageQuant LAS 4000 Mini device (GE Healthcare Lifesciences). […] After incubations cells were lysed as in A and protein concentrations in supernatants were similarly assessed. Glucose concentrations in the media were determined at the beginning and at the end of the incubation period with a Glucocard G+ meter (Arkray Factory, Inc.), and glucose uptake by cells was calculated using the protein concentrations of the corresponding lysates for normalization purposes.
(§2) A, A549 cells were cultured in DMEM plus 10% fetal bovine serum and penicillin/streptomycin with the indicated concentrations of glucose during 24 h. […] Lysates were cleared by centrifugation at 16,000×g for 5 min (4° C.) and the protein concentration of supernatants was determined (Bio-Rad). […]

[1] = system: AS160 protein phosphorylated at Ser 318 (P Ser 318 AS160); test: Western blot for AS160 phosphorylated at Ser 318 in A549 lysates (FIG. 2C); type: cell-based; conditions: A549 cells, DMEM:F-12 (315 mg glucose/dL), T12 50 μM, 20 h
Experimental: as §1, §2

[2] = system: C2Cl2 mouse myoblasts differentiated to myotubes; test: Glucose concentration in media of C2Cl2 myotubes at physiological glucose (FIG. 3); type: cell-based; conditions: initial glucose 115 mg/dL, T12 50 μM, indicated times
Experimental: C2Cl2 mouse myoblasts were differentiated to myotubes in DMEM supplemented with 2% horse serum and penicillin/streptomycin during 10 days, and then incubated in DMEM plus 0.25% horse serum with an initial glucose concentration of 115 mg/dL, in absence or presence of T12 (50 μM) during the indicated times. Glucose concentrations in media were determined with a Glucocard™ G+ meter (Arkray Factory, Inc.). Shown are means±SEM (n=2). […] C2Cl2 mouse myoblasts were differentiated to myotubes in DMEM supplemented with 2% horse serum and penicillin/streptomycin during 10 days, and then incubated in DMEM plus 0.25% horse serum with an initial glucose concentration of 115 mg/dL, in absence or presence of T12 (50 μM) during the indicated times. Glucose concentrations in media were determined with a Glucocard™ G+ meter (Arkray Factory, Inc.). Shown are means±SEM (n=2).

GPBP = biological target: T1, GPBP (Homo sapiens, UniProt Q9Y5P4); conditions: from WO 2004/070025, WO 2011/054530, U.S. Pat. No. 8,586,776, WO2014/006020; cited from earlier work
T1 sequence (Q9Y5P4 1-624): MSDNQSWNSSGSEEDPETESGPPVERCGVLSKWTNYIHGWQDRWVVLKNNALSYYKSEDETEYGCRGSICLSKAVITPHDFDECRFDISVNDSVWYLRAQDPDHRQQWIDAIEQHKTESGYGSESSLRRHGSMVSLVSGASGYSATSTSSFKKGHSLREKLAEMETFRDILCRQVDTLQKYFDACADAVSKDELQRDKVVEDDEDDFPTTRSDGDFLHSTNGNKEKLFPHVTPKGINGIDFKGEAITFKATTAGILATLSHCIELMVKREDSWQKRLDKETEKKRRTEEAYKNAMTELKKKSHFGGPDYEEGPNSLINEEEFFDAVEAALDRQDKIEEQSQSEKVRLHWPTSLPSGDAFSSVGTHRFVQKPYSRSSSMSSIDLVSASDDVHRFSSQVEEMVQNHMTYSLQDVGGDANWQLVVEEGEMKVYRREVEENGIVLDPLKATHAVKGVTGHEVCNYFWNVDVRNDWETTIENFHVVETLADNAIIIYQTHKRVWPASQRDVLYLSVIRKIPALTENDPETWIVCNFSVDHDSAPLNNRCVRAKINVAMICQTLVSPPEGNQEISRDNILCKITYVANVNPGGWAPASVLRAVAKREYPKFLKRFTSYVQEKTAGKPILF

Molecule	glucose uptake (A549 cells)	phosphorylation of AS160 (Ser 318) [1]	extracellular glucose levels [2]	inhibition of GPBP kinase activity (GPBP)
COc1ccc(-c2ccc(-c3cccc(C)c3)c(C)c2)c(CCC(=O)O)c1 [T12, 3-[4″-methoxy-3,2′-dimethyl-(1,1′;4′,1″)terphenyl-2″-yl]propionic acid]	progressively enhanced glucose uptake	induced phosphorylation of AS160	reduced the extracellular glucose levels in a concentration-dependent manner	
COc1cccc2c1C(=O)c1c(O)c3c(c(O)c1C2=O)C[C@@](O)(C(=O)CO)C[C@@H]3O[C@H]1C[C@H](N)[C@H](O)[C@H](C)O1 [doxorubicin]				inhibit GPBP kinase activity
Q2: isolated peptide representing 260SHCIE264 and flanking regions (LATLSHCIELMVKR) (SEQ ID NO: 8)				efficiently inhibited GPBP kinase activity
